Assay results as given in ChEMBL document CHEMBL1201862, “PubChem BioAssay data set” (2004).
Calls of active or inactive are those of the source.

Experiments:
[1] = target: Alkaline phosphatase, placental type (Homo sapiens, UniProt P05187); experiment: human placental alkaline phosphatase inhibition – biochemical, luminescence, confirmation (AID 1512); format: functional
[2] = target: T1, Alkaline phosphatase, tissue-nonspecific isozyme (Homo sapiens, UniProt P05186); experiment: potency against alkaline phosphatase TNAP – biochemical, luminescent, dose response, SAR follow-up (AID 1056)
T1 sequence (P05186 whole entry): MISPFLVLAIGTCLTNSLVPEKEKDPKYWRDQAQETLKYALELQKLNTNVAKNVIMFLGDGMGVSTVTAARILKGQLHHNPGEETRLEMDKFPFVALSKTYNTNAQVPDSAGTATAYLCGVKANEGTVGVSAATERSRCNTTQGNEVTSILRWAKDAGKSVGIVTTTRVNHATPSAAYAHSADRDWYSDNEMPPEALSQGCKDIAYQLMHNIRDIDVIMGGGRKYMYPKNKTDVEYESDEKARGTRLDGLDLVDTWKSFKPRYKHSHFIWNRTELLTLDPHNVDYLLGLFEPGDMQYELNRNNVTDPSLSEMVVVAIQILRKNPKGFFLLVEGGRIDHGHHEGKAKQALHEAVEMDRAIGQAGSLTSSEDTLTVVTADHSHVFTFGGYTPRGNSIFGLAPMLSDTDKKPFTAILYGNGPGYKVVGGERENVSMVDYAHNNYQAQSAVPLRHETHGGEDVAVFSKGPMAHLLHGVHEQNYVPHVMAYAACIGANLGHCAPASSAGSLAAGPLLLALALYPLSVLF

[3] = target: Glyceraldehyde-3-phosphate dehydrogenase (Homo sapiens, UniProt P04406)
[4] = target: T2, Protein RecA (Mycobacterium tuberculosis, UniProt P9WHJ3); experiment: RecA Intein Measured in Biochemical System Using Plate Reader - 2047-02_Inhibitor_Dose_DryPowder_Activity. [Related pubchem assays (depositor defined):AID2223]; parameters: species or system Mycobacterium tuberculosis H37Rv
T2 sequence (P9WHJ3 whole entry): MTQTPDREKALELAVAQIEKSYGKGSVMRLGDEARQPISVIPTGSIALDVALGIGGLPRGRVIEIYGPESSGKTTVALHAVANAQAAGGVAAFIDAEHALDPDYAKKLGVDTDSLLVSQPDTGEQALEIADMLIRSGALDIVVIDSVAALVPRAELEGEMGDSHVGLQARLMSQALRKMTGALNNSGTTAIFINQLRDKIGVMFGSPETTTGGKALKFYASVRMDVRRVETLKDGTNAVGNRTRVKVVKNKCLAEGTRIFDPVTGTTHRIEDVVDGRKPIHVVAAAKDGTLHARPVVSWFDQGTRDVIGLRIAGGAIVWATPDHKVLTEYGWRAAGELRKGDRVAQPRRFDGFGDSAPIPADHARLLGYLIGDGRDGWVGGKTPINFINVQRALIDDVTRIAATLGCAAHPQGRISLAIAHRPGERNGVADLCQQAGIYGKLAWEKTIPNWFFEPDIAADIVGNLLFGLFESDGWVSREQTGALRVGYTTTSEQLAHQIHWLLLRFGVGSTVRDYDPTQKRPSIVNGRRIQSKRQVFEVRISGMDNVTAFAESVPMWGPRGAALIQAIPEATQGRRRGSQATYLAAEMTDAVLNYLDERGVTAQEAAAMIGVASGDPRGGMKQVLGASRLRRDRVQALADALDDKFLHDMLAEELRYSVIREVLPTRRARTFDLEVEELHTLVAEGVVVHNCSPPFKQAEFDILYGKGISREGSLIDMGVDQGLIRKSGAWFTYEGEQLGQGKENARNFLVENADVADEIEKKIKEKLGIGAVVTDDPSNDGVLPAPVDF

[5] = target: T3, Replicative DNA helicase DnaB (Mycobacterium tuberculosis, UniProt P9WMR3); experiment: DnaB Intein secondary assay Measured in Biochemical System Using Plate Reader - 2047-04_Inhibitor_Dose_DryPowder_Activity. [Related pubchem assays (depositor defined):AID2223]
T3 sequence (P9WMR3 whole entry): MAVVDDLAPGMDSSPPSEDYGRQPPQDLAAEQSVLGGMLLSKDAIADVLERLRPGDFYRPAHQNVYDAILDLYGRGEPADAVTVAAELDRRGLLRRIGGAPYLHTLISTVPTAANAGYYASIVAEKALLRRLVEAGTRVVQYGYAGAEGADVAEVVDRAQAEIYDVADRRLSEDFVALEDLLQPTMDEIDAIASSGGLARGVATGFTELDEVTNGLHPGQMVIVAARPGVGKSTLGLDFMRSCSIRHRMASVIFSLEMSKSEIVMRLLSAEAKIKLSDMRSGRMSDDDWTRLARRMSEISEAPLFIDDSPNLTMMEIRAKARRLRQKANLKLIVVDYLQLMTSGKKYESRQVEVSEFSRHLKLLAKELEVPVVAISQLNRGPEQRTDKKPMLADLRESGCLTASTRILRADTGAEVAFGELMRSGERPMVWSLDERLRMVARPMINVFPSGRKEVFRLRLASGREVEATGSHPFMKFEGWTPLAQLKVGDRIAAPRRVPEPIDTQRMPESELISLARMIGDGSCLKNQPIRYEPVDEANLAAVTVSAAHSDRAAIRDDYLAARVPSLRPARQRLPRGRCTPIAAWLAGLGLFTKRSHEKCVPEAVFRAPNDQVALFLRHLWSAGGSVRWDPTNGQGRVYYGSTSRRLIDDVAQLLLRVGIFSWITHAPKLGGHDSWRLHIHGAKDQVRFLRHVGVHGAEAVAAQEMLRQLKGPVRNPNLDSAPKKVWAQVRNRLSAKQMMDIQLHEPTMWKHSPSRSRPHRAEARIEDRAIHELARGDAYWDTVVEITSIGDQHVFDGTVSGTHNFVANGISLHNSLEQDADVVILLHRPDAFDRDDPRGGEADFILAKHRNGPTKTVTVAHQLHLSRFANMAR

[6] = target: T2, Protein RecA; experiment: GFP-RecA MOA-DTT Measured in Biochemical System Using Plate Reader - 2047-05_Inhibitor_Dose_DryPowder_Activity. [Related pubchem assays (depositor defined):AID2223]; parameters: species or system Mycobacterium tuberculosis H37Rv
[7] = target: Voltage-dependent T-type calcium channel subunit alpha-1H (Homo sapiens, UniProt O95180); experiment: human CACNA1H calcium influx blockade – cell-based, synthetic library set 1, calcium flux (AID 493022); format: functional
[8] = target: Large T antigen (Simian virus 40, UniProt P03070); format: functional, Betapolyomavirus macacae;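 further: Confirmatory-stage PubChem screen for compounds that inhibit SV40 T antigen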
[9] = Fluorescence-based cell-based high throughput dose response assay for inhibitors of the interaction of nucleotide-binding oligomerization domain containing 2 (NOD2) and the receptor-interacting serine-threonine kinase 2 (RIPK2).; format: functional; conditions: Homo sapiens
[10] = target: T4, Voltage-gated N-type calcium channel alpha-1B subunit/Amyloid beta A4 precursor protein-binding family A member 1 (Homo sapiens, UniProt Q00975+Q02410); format: protein assay
[11] = target: T4, Voltage-gated N-type calcium channel alpha-1B subunit/Amyloid beta A4 precursor protein-binding family A member 1; format: protein assay; remark: listed apart in the source
[12] = target: Beta Lactamase (Pseudomonas aeruginosa, UniProt Q932Y6); experiment: BLA reporter interference, concentration series – BLA reporter cells, FRET fluorescence, artefact control for NOD2-RIPK2 interaction inhibitor project, dose response (AID 651552); format: functional, cell-based
[13] = target: Glucose-6-phosphate 1-dehydrogenase (Homo sapiens, UniProt P11413); experiment: inhibition of Homo sapiens G6PD, dose series – biochemical, fluorescence, selectivity assay for P. falciparum G6PD inhibitor project, dose response (AID 504792); format: functional
[14] = target: T5, Kappa-type opioid receptor (Homo sapiens, UniProt P41145); experiment: SAR analysis of small molecule agonists of the kappa opioid receptor via a luminescent beta-arrestin assay - Set 3. [Related pubchem assays (depositor defined):AID1777, AID1785, AID1786, AID1966, AID2133, AID2136, AID2284, AID2500]; format: functional
[15] = target: Delta-type opioid receptor (Homo sapiens, UniProt P41143); experiment: SAR Analysis of Agonists of the DOR Receptor using an Image-Based Assay - Set 3. [Related pubchem assays (depositor defined):AID1777, AID1786]; format: functional
[16] = target: T5, Kappa-type opioid receptor; experiment: kappa opioid receptor activation by imaging – image-based, set 3, SAR follow-up (AID 488833); format: functional
[17] = target: Mu-type opioid receptor (Homo sapiens, UniProt P35372); experiment: SAR Analysis of Agonists of the MOR Receptor using an Image-Based Assay - Set 3. [Related pubchem assays (depositor defined):AID1777, AID1785, AID1786, AID1966, AID2133, AID2136, AID2284, AID2285, AID2352]; format: functional
Sequence of Mu-type opioid receptor (P35372 whole entry): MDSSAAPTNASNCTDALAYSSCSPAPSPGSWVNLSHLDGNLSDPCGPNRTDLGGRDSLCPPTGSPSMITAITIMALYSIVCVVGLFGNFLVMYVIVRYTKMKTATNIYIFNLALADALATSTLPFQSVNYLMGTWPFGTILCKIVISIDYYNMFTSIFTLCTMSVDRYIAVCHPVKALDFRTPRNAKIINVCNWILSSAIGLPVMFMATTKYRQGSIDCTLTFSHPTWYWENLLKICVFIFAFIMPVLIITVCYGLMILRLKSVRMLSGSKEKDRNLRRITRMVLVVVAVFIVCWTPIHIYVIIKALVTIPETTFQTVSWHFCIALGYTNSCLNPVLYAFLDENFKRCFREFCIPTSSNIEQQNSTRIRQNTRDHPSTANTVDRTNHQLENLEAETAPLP

T5 sequence (P41145 whole entry): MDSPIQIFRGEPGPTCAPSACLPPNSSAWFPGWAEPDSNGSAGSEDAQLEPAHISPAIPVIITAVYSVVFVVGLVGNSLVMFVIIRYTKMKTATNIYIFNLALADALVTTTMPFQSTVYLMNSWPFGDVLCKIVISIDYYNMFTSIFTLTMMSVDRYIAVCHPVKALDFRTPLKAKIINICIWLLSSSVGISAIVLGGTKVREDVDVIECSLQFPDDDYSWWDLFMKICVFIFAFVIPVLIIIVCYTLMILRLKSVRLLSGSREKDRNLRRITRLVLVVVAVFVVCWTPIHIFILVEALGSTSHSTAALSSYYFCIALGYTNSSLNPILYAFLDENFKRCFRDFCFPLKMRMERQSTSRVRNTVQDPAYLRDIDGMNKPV
T4 sequence (Q00975 whole entry): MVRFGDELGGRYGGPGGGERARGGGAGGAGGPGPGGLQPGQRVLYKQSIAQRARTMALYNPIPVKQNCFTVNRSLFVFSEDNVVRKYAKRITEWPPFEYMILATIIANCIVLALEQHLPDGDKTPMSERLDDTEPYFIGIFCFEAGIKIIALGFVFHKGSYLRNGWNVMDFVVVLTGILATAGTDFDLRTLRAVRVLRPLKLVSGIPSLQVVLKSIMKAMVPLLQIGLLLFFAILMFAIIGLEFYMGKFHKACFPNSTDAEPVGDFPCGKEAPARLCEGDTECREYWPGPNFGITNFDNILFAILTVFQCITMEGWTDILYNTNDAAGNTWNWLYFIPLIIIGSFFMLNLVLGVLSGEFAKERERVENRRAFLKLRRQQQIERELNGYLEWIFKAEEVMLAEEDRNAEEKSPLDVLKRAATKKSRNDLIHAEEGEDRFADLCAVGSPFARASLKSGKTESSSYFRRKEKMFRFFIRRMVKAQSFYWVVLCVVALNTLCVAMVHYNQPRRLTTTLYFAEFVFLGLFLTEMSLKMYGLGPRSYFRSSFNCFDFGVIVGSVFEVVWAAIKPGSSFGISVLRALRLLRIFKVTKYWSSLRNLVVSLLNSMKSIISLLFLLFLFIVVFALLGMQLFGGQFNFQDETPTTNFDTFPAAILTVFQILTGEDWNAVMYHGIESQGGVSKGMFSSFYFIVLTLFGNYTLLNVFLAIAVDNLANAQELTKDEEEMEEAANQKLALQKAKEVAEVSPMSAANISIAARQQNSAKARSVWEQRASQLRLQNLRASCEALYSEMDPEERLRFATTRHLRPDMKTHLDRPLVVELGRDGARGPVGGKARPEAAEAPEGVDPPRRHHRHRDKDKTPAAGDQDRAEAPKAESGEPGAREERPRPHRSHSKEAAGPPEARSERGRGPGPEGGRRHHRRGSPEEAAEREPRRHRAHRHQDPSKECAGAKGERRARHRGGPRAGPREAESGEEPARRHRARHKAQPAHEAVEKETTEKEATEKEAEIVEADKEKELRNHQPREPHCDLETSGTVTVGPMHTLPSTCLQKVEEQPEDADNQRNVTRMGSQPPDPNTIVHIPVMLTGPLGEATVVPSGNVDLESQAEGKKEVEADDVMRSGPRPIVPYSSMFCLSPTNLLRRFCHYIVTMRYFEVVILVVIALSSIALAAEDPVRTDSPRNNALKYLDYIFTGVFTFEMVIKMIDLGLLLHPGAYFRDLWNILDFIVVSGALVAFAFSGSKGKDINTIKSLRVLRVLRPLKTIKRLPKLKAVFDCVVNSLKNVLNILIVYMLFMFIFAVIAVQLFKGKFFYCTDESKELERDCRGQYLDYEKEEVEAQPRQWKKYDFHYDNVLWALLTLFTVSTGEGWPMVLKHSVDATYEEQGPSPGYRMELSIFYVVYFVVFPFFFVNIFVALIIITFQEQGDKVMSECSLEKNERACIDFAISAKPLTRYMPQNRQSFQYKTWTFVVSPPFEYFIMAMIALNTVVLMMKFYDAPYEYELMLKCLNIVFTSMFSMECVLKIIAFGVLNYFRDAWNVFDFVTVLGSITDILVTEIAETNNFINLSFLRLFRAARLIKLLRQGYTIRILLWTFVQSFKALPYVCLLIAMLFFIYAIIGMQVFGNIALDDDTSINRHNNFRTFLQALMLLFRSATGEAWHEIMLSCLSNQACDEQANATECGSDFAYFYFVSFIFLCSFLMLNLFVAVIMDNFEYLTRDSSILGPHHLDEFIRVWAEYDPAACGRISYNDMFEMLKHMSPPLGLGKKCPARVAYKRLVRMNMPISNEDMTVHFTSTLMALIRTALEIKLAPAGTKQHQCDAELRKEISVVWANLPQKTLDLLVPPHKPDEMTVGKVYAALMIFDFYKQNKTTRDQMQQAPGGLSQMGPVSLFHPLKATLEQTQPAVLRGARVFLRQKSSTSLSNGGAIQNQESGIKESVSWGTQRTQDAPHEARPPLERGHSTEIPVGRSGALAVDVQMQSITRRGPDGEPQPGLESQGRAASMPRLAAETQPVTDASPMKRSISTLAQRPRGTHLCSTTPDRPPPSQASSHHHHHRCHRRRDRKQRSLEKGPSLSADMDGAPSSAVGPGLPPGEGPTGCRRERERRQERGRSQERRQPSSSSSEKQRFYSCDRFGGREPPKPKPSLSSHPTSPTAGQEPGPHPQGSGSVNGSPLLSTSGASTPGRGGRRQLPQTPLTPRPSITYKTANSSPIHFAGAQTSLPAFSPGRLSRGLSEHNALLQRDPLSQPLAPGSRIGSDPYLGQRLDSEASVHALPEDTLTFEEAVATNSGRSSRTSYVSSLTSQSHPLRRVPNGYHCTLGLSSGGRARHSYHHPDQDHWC
T4 sequence (Q02410 whole entry): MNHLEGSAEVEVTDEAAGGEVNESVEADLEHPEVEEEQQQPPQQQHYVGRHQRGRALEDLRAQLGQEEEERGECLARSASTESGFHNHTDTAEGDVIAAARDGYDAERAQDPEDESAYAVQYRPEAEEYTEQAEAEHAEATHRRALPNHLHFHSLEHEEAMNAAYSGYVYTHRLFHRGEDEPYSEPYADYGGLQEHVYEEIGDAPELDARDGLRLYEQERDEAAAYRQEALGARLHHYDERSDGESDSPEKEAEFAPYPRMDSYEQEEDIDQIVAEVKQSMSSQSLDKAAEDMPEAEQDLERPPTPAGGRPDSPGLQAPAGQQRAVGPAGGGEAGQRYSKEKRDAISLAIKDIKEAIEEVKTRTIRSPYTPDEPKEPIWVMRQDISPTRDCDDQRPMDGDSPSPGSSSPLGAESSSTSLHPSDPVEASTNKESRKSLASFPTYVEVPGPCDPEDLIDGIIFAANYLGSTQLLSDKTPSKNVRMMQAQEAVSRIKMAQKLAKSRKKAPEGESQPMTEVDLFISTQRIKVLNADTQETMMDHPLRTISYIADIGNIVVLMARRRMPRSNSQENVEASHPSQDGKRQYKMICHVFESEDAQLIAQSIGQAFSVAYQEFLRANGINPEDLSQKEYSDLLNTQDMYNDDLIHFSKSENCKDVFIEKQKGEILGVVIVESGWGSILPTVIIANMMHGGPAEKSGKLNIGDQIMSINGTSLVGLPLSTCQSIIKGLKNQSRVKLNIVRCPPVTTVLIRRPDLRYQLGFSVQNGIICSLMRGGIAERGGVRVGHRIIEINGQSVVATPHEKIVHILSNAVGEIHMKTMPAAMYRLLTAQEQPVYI
Sequence of Beta Lactamase (Q932Y6 whole entry): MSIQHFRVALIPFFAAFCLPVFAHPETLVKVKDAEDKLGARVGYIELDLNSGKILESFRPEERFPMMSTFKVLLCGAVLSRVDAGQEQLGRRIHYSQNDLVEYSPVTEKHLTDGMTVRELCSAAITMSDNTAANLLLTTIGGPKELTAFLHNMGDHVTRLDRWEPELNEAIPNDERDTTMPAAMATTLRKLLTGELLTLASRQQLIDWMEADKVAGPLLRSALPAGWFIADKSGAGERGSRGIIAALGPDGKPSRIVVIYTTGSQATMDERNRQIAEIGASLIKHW
Sequence of Glucose-6-phosphate 1-dehydrogenase (P11413 whole entry): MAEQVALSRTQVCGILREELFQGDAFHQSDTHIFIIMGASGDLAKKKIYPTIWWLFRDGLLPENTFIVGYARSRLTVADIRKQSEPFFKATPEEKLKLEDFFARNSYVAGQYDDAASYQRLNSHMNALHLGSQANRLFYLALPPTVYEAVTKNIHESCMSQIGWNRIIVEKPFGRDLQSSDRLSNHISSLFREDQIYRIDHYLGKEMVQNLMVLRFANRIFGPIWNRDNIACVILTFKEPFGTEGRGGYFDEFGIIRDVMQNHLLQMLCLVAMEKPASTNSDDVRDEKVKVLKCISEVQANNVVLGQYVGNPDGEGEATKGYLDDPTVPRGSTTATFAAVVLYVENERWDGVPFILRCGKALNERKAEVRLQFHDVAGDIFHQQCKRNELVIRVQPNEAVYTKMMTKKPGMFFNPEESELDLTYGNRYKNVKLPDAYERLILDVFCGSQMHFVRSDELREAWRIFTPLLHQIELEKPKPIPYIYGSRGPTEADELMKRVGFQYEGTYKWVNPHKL

For CC(C)(C)NC(=O)c1cc(-c2cc(F)c(Cl)cc2Cl)n[nH]1, which IC50 [1] is on record?
Its IC50 is > 100 µM (inactive).

And the IC50 [2]?
The IC50 was 1.08 µM (active).

And the IC50 [3]?
Its IC50 is > 100 µM (not active).

For Cc1oc2c(c1C(=O)NCc1ccccn1)C(=O)c1ccccc1C2=O, which AC50 [4] is on record?
Its AC50 is 0.074 µM (active).

What about the AC50 [5] of the same compound?
Its AC50 is 1.07 µM (active).

What about the AC50 [6] of the same compound?
The AC50 was 9.92 µM (active).

Which EC50 [7] does the source give for O=C(COc1ccc(F)c(Cl)c1)Nc1nnc(-c2ccc3c(c2)CCCC3)o1 here?
The EC50 was 2.4 µM (active).

For N#C/C(C(=O)Nc1ccc(Cl)cc1)=C(/S)Nc1ccccc1, which IC50 [8] is on record?
Its IC50 is 16.5 µM (active).

What about the IC50 [9] of the same compound?
The IC50 was 19.6 µM (inactive).

What about the IC50 [10] of the same compound?
Its IC50 is 25.5 µM (active).

And the IC50 [11]?
The IC50 was 13.9 µM (active).

And the IC50 [12]?
The IC50 was 49.8 µM (inactive).

What about the IC50 [13] of the same compound?
The IC50 was 52 µM (inactive).

What does the source list for N#Cc1ccc(CSc2nnc(-c3ccccn3)n2Cc2ccco2)cc1?
EC50 [14]: 6.79 µM (active); EC50 [15]: > 64 µM (inactive); EC50 [16]: 19.3 µM (inactive); EC50 [17]: > 32 µM (inactive)
